# Values of other authors in article PMC4621754, “Parasitic diarrheal disease: drug development and targets” (Frontiers in Microbiology, 2015).
# Where two headings read alike, the source gives them in different places.
# How the values were obtained:
# I. belli = conditions: for cure of I. belli induced diarrhea: ref Trier et al., 1974, Syrkis et al., 1975, Butler and De Boer, 1981, Weiss et al.; for cure of diarrheal disease caused by I. belli: ref Ferguson et al., 1980, Ebrahimzadeh and Bottone, 1996
# [1] = HM1: IMSS strain, ref Wani et al., 2012b
# [2] = HM1:IMSS strain, ref Duque-Montaño et al., 2013
# [3] = in vitro, ref Torres-Gomez et al., 2008b
# [4] = ref Hernández-Nunez et al., 2009
# [5] = ref Navarrete-Vazquez et al., 2003
# [6] = in vitro, ref Hernández-Nunez et al., 2009
compound,measurement,setting,value
"1,1^∕-(10,15-diphenyl-21,23-dithiaporphine-5,20-diyl)bis[2-{[methyl(phenylmethyl)amino]methyl}-ferrocene] [Compound 34]",IC50,"E. histolytica; in vitro, HM1:IMSS strain, ref Bhat et al., 2009b",590 nM
"Cc1ccc(/C=C/C(=O)c2ccc(C)cc2)cc1 [Compound 25, (2E)-1,3-bis(4-methylphenyl)prop-2-en-1-one]",IC50,E. histolytica; [1],4190 nM
"COc1ccc(-c2nnnn2CC(=O)N2N=C(c3ccccc3)CC2c2ccc(OC)cc2)cc1 (stereo not shown) [Compound 26, 1-(4,5-dihydro-5-(4-methoxyphenyl)-3-phenylpyrazol-1-yl)-2-(5-(4-methoxyphenyl)-1H-tetrazol-1-yl)ethanone]",IC50,E. histolytica; [1],1160 nM
"O=[N+]([O-])c1ccc(S(=O)(=O)Nc2nc(NS(=O)(=O)c3ccc([N+](=O)[O-])cc3)nc(-c3ccc4c(c3)OCO4)n2)cc1 [Compound 27, N, N^∕-6-(1,3-benzodioxol-5-yl)-(1,3,5-triazine-2,4-diyl)-bis-4-nitrobenzene sulphonamide]",IC50,"E. histolytica; ref Wani et al., 2012a",1020 nM
"O=S(=O)(Nc1nc(-c2ccccc2)cc(-c2ccccc2Cl)n1)c1ccccc1 [Compound 28, N-[4-(2-chlorophenyl)-6-phenylpyrimidin-2-yl]-benzenesulphonamide]",IC50,"E. histolytica; in vitro, ref Siddiqui and Azam, 2014",440 nM
"COc1ccc(C2ON=C(c3ccc([N+](=O)[O-])s3)O2)cc1 (stereo not shown) [Compound 29, 5-(4-methoxy-phenyl)-3-(5-nitro-2-thienyl)-1,4,2-dioxazole]",IC50,"E. histolytica; in vitro, ref Irfan et al., 2010",1600 nM
"Cc1cccc(NC(=S)NN=Cc2ccc(-c3c4nc(c(-c5ccccc5)c5ccc([nH]5)c(-c5ccccc5)c5nc(c(-c6ccccc6)c6ccc3[nH]6)C=C5)C=C4)cc2)c1 [Compound 30, 4-(3-methylphenyl)-1-{[4-(10,15,20-triphenylporphyrin-5-yl)phenyl]methylidene}thiosemicarbazide]",IC50,"E. histolytica; ref Bhat et al., 2008",538 nM
"CC(=NNC(=S)NCc1ccc(C)cc1)c1c(O)ccc2ccc(=O)oc12 [Compound 31, 7-hydroxy-8-acetylcoumarin-N(4,4)methylbenzyl thiosemicarbazone]",IC50,"E. histolytica; ref Iqbal et al., 2009",1060 nM
O=[N+]([O-])c1ccc(NC(=S)N2N=C(c3ccccc3)CC2c2ccc(C3CC(c4ccccc4)=NN3C(=S)Nc3ccc([N+](=O)[O-])cc3)cc2)cc1 (stereo not shown) [Compound 32],IC50,"E. histolytica; ref Bhat et al., 2009a",420 nM
"CC(C)c1ccccc1C1CC(c2ccccc2)=NN1c1nc2nc3ccccc3nc2s1 (stereo not shown) [Compound 33, 2-{5-[2-(methylethyl)phenyl]-3-phenyl-2-pyrazolinyl}-1,3-thiazolino[5,4-b]quinoxaline]",IC50,"E. histolytica; HM1:IMSS strain, ref Budakoti et al., 2009",170 nM
"COC(=O)c1ccc2c(c1)[n+]([O-])c(C(C)=O)c(C)[n+]2[O-] [Compound 37, methyl 2-acetyl-3-methyl-quinoxaline-7-carboxylate 1,4-di-N-oxide]",IC50,E. histolytica; [2],1410 nM
"CCOC(=O)c1ccc2c(c1)[n+]([O-])c(C(N)=O)c(C)[n+]2[O-] [Compound 38, ethyl 2-amide-3-methylquinoxaline-7-carboxylate 1,4-di-N-oxide]",IC50,E. histolytica; [2],1470 nM
"COc1ccc(NC(=O)C(N)CCSC(F)(F)F)cc1OC (stereo not shown) [Compound 40, 3,4-dimethoxyanilide trifluoromethionine]",IC50,"E. histolytica; in vitro, ref Sato et al., 2010",1190 nM
"COc1ccc2[nH]c(-c3ccc(OCCCCCOc4ccc(-c5nc6cc(OC)ccc6[nH]5)cc4)cc3)nc2c1 [Compound 41, 1,5-bis[4-(5-methoxy-1H-benzimidazole-2-yl)phenoxy]pentane]",IC50,E. histolytica; [3],109 nM
"Cc1nc([N+](=O)[O-])cn1CC(=O)NCc1ccccc1 [Compound 42, N-benzyl-2-(2-methyl-4-nitro-1H-imidazol-1-yl)acetamide]",IC50,E. histolytica; [4],3960 nM
"Cc1ccc(S(=O)(=O)n2cc([N+](=O)[O-])nc2C)cc1 [Compound 43, 2-methyl-1-[(4-methylphenyl)sulfonyl]-4-nitro-1H-imidazole]",IC50,E. histolytica; [4],3550 nM
"O=[N+]([O-])c1cccc(/C=N/Nc2ccccc2)c1 [Compound 44, (E)-1-(3-nitrobenzylidene)-2-phenylhydrazine]",IC50,"E. histolytica; in vitro, HM1:IMSS strain, ref Toledano-Magana et al., 2015",840 nM
"COc1ccc(Nc2c(C#N)cnc3sccc23)cc1 [Compound 58, 4-(4-methoxyphenylamino)thieno[2,3-b]pyridine-5-carbonitrile]",giardicidal effect,"G. lamblia; ref Bernardino et al., 2006",excellent giardicidal effect
"COc1cc(-c2nc3cc(C)ccc3[nH]2)ccc1OCCCCCOc1ccc(-c2nc3cc(C)ccc3[nH]2)cc1OC [Compound 59, 1,5-bis[2-methoxy-4-(5-methyl-1H-benzimidazole-2-yl)phenoxy] pentane]",IC50,G. lamblia; [3],372 nM
same,IC50,"G. lamblia; ref Torres-Gomez et al., 2008a",372 nM
same,folds more potent than metronidazole,"G. lamblia; ref Torres-Gomez et al., 2008a",3 folds
same,folds more potent than pentamidine,"G. lamblia; ref Torres-Gomez et al., 2008a",9 folds
same,fold more activity than metronidazole,"G. lamblia; ref Torres-Gomez et al., 2008b",3 fold
same,fold more activity than pentamidine,"G. lamblia; ref Torres-Gomez et al., 2008b",9 fold
"Cn1c(C(F)(F)F)nc2cc(Cl)ccc21 [Compound 60, 5-chloro-1-methyl-2-(trifluoromethyl)benzimidazole]",IC50,"G. lamblia; in vitro, ref Gabriel Navarrete-Vaa Zquez et al., 2001",42 nM
"COc1ccc(C(=O)/C=C/c2ccccc2F)cc1 [Compound 61, (E)-3-(6-flourophenyl)-1-(4-methoxyphenyl)prop-2-en 1-one]",IC50,"G. lamblia; ref Montes-Avila et al., 2009",12700 nM
"CCCSc1ccc2nc(C(F)(F)F)n(C)c2c1 [Compound 63, 1-methyl-6-(propylthio)-2-(trifluoromethyl)-1H-benzimidazole]",IC50,G. lamblia; [5],1400 nM
"CCCSc1ccc2[nH]c(C(F)(F)F)nc2c1 [Compound 64, 5(6)-(propylthio) -2-(trifluoromethyl)-1H-benzimidazole]",IC50,G. lamblia; [5],1520 nM
"Cn1c(C(F)(F)F)nc2cc(C(=O)c3ccccc3)ccc21 [Compound 65, 5-benzoyl-1-methyl-2-(trifluoromethyl)-1H-benzimidazole]",IC50,G. lamblia; [5],1100 nM
"Cn1c(C(F)(F)F)nc2ccc(C(=O)c3ccccc3)cc21 [Compound 66, 6-benzoyl-1-methyl-2-(trifluoromethyl)-1H-benzimidazole]",IC50,G. lamblia; [5],1280 nM
"COc1cc(NC(c2coc3ccccc3c2=O)c2nnnn2C2CCCCC2)cc(OC)c1OC (stereo not shown) [Compound 67, 3-((1-cyclohexyl-1H-tetrazol-5-yl)((3,4,5-trimethoxyphenyl)amino)methyl)-4H-chromen-4-one]",IC50,"G. lamblia; ref Cano et al., 2014",171000 nM
"Cc1nc([N+](=O)[O-])cn1CC(=O)Nc1ccc(C#N)cc1 [Compound 72, N-(4-cyanophenyl)-2-(2-methyl-4-nitro-1H-imidazol-1-yl) acetamide]",IC50,G. lamblia; [6],11200 nM
"Cc1nc([N+](=O)[O-])cn1S(=O)(=O)c1ccc([N+](=O)[O-])cc1 [Compound 73, 2-methyl-4-nitro-1-[(4-nitrophenyl)sulfonyl]-1H-imidazole]",IC50,G. lamblia; [6],7500 nM
"O=C1OCCN1/N=C/c1ccc([N+](=O)[O-])o1 [furazolidone, Furazolidone]",cure of I. belli induced diarrhea,I. belli; 1988,cure the I. belli induced diarrhea but to lesser extent
CCc1nc(N)nc(N)c1-c1ccc(Cl)cc1 [pyrimethamine],cure of diarrheal disease caused by I. belli,I. belli,cure the diarrheal disease
CCN(CC)CCCC(C)Nc1c2ccc(Cl)cc2nc2ccc(OC)cc12 (stereo not shown) [quinacrine],cure of I. belli induced diarrhea,I. belli; 1988,cure the I. belli induced diarrhea but to lesser extent
CC[C@H]1OC(=O)[C@H](C)[C@@H](O[C@H]2C[C@@](C)(OC)[C@@H](O)[C@H](C)O2)[C@H](C)[C@@H](O[C@@H]2O[C@H](C)C[C@H](N(C)C)[C@H]2O)[C@](C)(O)C[C@@H](C)/C(=N\OCOCCOC)[C@H](C)[C@@H](O)[C@]1(C)O [roxithromycin],efficacy in chronic I. belli induced diarrhea,"I. belli; when TMP-SMX or pyrimethamine treatments become inadequate, ref Musey et al., 1988",effective
Nc1ccc(S(=O)(=O)Nc2ncccn2)cc1 [sulfadiazine],cure of diarrheal disease caused by I. belli,I. belli,cure the diarrheal disease
Ni(Fctpy)2][PF6]2 [Compound 22],activity against E. histolytica,"E. histolytica; ref Juneja et al., 2014",most promising activity
cyclosporine A [reference compound],proliferation of E. histolytica,"E. histolytica; ref Carrero et al., 2004",inhibits proliferation
